{"source": "paper PMC12439760", "about": "(Bioorganic & medicinal chemistry, 2025)", "key": {"[1]": {"assay": "Mouse pharmacokinetic study", "assay_type": "in vivo, C57BL/6 mice", "settings": "mouse, PO 3 mg/kg"}, "hCB1 receptor": {"biological_target": "hCB1 receptor (Homo sapiens, UniProt P21554)", "sequence (P21554 whole entry)": "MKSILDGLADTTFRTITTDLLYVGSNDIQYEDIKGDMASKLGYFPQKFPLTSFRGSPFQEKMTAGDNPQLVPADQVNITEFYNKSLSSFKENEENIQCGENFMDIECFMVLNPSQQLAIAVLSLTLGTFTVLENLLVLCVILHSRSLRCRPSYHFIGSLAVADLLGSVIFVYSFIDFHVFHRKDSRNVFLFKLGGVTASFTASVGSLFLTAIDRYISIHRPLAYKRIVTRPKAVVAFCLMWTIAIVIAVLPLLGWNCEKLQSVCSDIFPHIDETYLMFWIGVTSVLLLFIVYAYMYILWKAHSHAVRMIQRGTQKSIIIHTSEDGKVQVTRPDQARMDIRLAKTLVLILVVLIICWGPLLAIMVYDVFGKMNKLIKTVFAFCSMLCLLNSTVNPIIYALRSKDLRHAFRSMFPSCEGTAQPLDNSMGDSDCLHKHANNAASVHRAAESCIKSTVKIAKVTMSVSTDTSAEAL", "assay": "hCB1 Gαq16-coupled calcium mobilization assay in CHO-K1 cells", "assay_type": "cell-based", "settings": "hCB1 Ca EC50, CHO cells expressing hCB1 and Gαq16, calcium mobilization"}, "Human liver microsome": {"assay": "Human liver microsome", "assay_type": "in vitro ADME", "settings": "pooled human liver microsomes, pH 7.4"}, "CYP2B6": {"tested_on": "CYP2B6", "assay": "CYP2B6 induction assay in HepaRG cells", "assay_type": "cell-based, human", "settings": "10 μM, 24 hrs, % of positive control 1 mM phenobarbital"}, "CYP3A4": {"tested_on": "CYP3A4", "assay": "CYP3A4 induction assay in HepaRG cells", "assay_type": "cell-based, human", "settings": "10 μM, 24 hrs, % of positive control 10 μM rifampicin"}, "hCB2 receptor": {"biological_target": "hCB2 receptor (Homo sapiens, UniProt P34972)", "sequence (P34972 whole entry)": "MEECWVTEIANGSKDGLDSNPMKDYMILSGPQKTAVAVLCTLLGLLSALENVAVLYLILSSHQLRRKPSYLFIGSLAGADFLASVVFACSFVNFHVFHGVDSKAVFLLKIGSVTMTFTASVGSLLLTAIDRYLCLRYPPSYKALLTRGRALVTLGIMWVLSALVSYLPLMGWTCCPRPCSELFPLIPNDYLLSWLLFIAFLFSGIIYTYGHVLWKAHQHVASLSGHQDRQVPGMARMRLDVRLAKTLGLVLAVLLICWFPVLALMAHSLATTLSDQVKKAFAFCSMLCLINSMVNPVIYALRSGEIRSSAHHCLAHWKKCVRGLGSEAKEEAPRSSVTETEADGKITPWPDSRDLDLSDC", "assay": "hCB2 Gαq16-coupled calcium mobilization assay in CHO-K1 cells", "assay_type": "cell-based", "settings": "hCB2 Ca EC50, CHO cells expressing hCB2 and Gαq16, calcium mobilization"}, "CYP1A2": {"tested_on": "CYP1A2", "assay": "CYP1A2 induction assay in HepaRG cells", "assay_type": "cell-based, human", "settings": "10 μM, 24 hrs, % of positive control 50 μM omeprazole"}}, "data": [{"smiles": "CC(C)(NC(=O)c1nn(Cc2ccc(F)cc2F)c2ccccc12)c1cccc(C(N)=O)c1", "note": "[Compound 45, N-[2-(3-Carbamoylphenyl)propan-2-yl]-1-[(2,4-difluorophenyl)methyl]-1H-indazole-3-carboxamide]", "values": [{"measurement": "Max. Conc. Brain", "setting": "[1]; at 0.5 h", "value": 11, "unit": "ng/mL"}, {"measurement": "Max. Conc. Liver", "setting": "[1]; at 0.5 h", "value": 920, "unit": "ng/mL"}, {"measurement": "Max. Conc. Plasma", "setting": "[1]; at 0.5 h", "value": 160, "unit": "ng/mL"}, {"measurement": "Plasma Half-life (HL)", "setting": "[1]; 3 mg/kg", "value": 7.3, "unit": "h"}, {"measurement": "EC50", "setting": "hCB1 receptor", "value": "151 ± 32", "unit": "nM"}, {"measurement": "half-life at 1 μM", "setting": "Human liver microsome", "value": "> 3.33", "unit": "h"}, {"measurement": "microsomal CLint at 1 μM", "setting": "Human liver microsome", "value": "< 5", "unit": "µL/min/mg"}, {"measurement": "CYP2B6 Induction (% of Phenobarbital)", "setting": "CYP2B6", "value": 6, "unit": "%"}, {"measurement": "CYP3A4 Induction (% of Rifampicin)", "setting": "CYP3A4", "value": 66, "unit": "%"}, {"measurement": "EC50", "setting": "hCB2 receptor", "value": "35 ± 6", "unit": "nM"}, {"measurement": "CYP1A2 Induction (% of Omeprazole)", "setting": "CYP1A2", "value": 20, "unit": "%"}]}]}
